In data set [1] the test system is anti-EUGs mAb. The data set is described as follows: broad-spectrum indirect competitive ELISA. The format is binding, mice. To be noted: for CR (cross-reactivity): CR=[(IC50 eugenol)/(IC50 analog)]×100%; for LOD (IC10) / linear range (IC20–IC80): in buffer solution.
For data set [2] the following is noted: National Toxicology Program; ref Li et al., 2015; cited from earlier work.
Data set [3] concerns anti-EUGs mAb. The data set is described as follows: antibody affinity by saturation concentration method. The format is binding, mice. To be noted: mAb to eugenol.
For data set [4] the following is noted: ref Li et al., 2015; cited from earlier work.
The test system of a further data set is 1B5 mAb. To be noted: previously reported mAb; ref [2] Lei et al., 2023; cited from earlier work.

This is an account of results in PMC10912603 (Food Chemistry: X, 2024).

Broadly, the Kd is the equilibrium constant for the complex coming apart.

Take `CCOC(=O)c1ccc(N)cc1` [Benzocaine]: the “CR (cross-reactivity)” value in the data set on anti-EUGs mAb [1] is given as less than 0.4%.
On the same count and under the same terms, the result for `COc1ccccc1O` [Guaiacol] reads less than 0.4%; that for `COc1cc(C=O)ccc1O` [Vanillin], less than 0.4%.
In the case of `C/C=C/c1ccc(OC)c(OC)c1` [Methyl isoeugenol], in the data set with anti-EUGs mAb [1], the “CR (cross-reactivity)” value is 8679.5%, the “LOD (IC10)” value is 0.02 ng/mL and the “linear range (IC20–IC80)” value lay in the range of 0.06 to 3.04 ng/mL.
For `COc1ccc(C=O)cc1OC` [Veratraldehyde], the “CR (cross-reactivity)” value in the data set on anti-EUGs mAb [1] is less than 0.4%.
Regarding `CC(C)c1cccc(C(C)C)c1O` [Propofol], the “CR (cross-reactivity)” value with anti-EUGs mAb [1] is less than 0.4%.
As for `CCc1ccc(O)c(OC)c1` [4-Ethyl-2-methoxyphenol], in the data set on anti-EUGs mAb [1], the “CR (cross-reactivity)” value came to 8.7%.
The same measure, in the same setting: next, `CCOC(=O)c1cccc(N)c1.CS(=O)(=O)O` [Tricaine methanesulfonate]: less than 0.4%.
With Isoeugenol, in the data set on anti-EUGs mAb [1], the “CR (cross-reactivity)” value is 25460.0%, the “LOD (IC10)” value came out at 0.00935 ng/mL and the “linear range (IC20–IC80)” value lay in the range of 0.026 to 0.865 ng/mL.
For `C=CCc1ccc(OC)c(OC)c1` [Methyl eugenol], in the data set on anti-EUGs mAb [1], the “CR (cross-reactivity)” value was 4773.8%, the “LOD (IC10)” value is listed as 0.06 ng/mL and the “linear range (IC20–IC80)” value was in the range of 0.15 to 4.30 ng/mL. Besides, the liver cancer risk entry in data set [2] is “potential to elevate the risk of liver cancer”.
For the compound `C=CCc1ccc(O)c(OC)c1` [Eugenol], the “dissociation constant Ka” value with anti-EUGs mAb [3] (Ka is the inverse of Kd) was 1.3e+09 L/mol. Also, the Kd at anti-EUGs mAb [3] (read-out: affinity constant Kd) was 0.77 nM. In addition, in the data set on anti-EUGs mAb [1], the “CR (cross-reactivity)” value is recorded as 100%, the “LOD (IC10)” value was found to be 3.16 ng/mL and the “linear range (IC20–IC80)” value fell in the range of 7.92 to 184.05 ng/mL. Besides, the IARC carcinogen category result in data set [4] is “Group 3 carcinogen”. Moreover, in the data set with 1B5 mAb, the “IC50 of mAb 1B5” value was 9.23 ng/mL.
As to `Oc1ccccc1O` [Catechol], in the data set on anti-EUGs mAb [1], the “CR (cross-reactivity)” value is listed as less than 0.4%.
Same read-out and setting: the result for `CCCCNc1ccc(C(=O)OCCN(C)C)cc1` [Tetracaine] reads less than 0.4%.
